Converted amounts (≈) assume the structure as drawn. “And” between values parts separate entries of the source, which are not always exact repeats. Identical values can stand only once. Like-named read-outs stand apart in the source and are kept apart here.
Experiments:
[1] = test system: D6 and W2 P. falciparum clones; format: cell-based, Plasmodium falciparum; details: for Resistance Index: IC50 (W2)/IC50 (D6) ratio; for times more active than bis(1,1-dioxy-2-methylcyclohexane): antimalarial activity versus literature tetraoxane
[2] = test system: Mycobacterium tuberculosis H37Rv (ATCC 27294); test: Primary screen, Microplate Alamar Blue Assay (MABA), percent inhibition; format: cell-based; details: Mycobacterium tuberculosis, primary screening at 6.25 μg/ml
How it was run: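 Single-concentration screen at 6.25 μg/ml (or molar equivalent of the heaviest congener in a series) against H37Rv grown in BACTEC 12B medium. Growth read by Microplate Alamar Blue Assay, reported as percent inhibition.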

[3] = test system: lung NCI-H460, breast MCF7, CNS SF-268; test: 3-cell line one dose primary anticancer assay (NCI); format: cell-based, human; details: growth percentage after 48 hours, at 100 μM
Method: In preliminary tests, four compounds (1B14a, 1C44, 1C45, and 1C46) were chosen by NIH-NCI for in vitro screening. See Drug discovery and development program, National Cancer Institute, Bethesda, (NCI), http://dtp.nci.nih.gov. All tetraoxanes were evaluated in the 3-cell line (lung—NCI-H460, breast—MCF7, CNS-SF-268) one dose primary anticancer assay: growth percentage after 48 hours, at 100 μM concentration of tested compound. Two compounds were eliminated at this step (1B14a and 1C46), while the acid 1C44 and primary amide 1C45 were evaluated against the full panel of 60 human tumor cell lines starting with 10^−4 M concentration of investigated compounds.

M. tuberculosis H37Rv = test: Minimum inhibitory concentration (MIC) in the MABA; format: cell-based, Mycobacterium tuberculosis; details: Mycobacterium tuberculosis, H37RV
How it was run: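 Run under the NIAID TAACF screening program against M. tuberculosis by fluorescence read-out. MIC taken as the lowest concentration giving 90% reduction in fluorescence relative to controls.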

[4] = test system: Plasmodium falciparum chloroquine-susceptible strain D6; test: In vitro antimalarial drug susceptibility assay (radiolabeled hypoxanthine incorporation), strain D6; format: cell-based; details: for Strain D6 IC50: growth inhibition, chloroquine-susceptible strain D6, 66 h incubation; for IC50: Plasmodium falciparum, D6, 66 h, read-out: Strain D6 IC50, growth inhibition, chloroquine-susceptible strain D6, 66 h incubation
[5] = test system: Plasmodium falciparum chloroquine-resistant strain W2; test: microbe, parasite or virus in culture; format: cell-based; details: for Strain W2 IC50: growth inhibition, chloroquine-resistant strain W2, 66 h incubation; for IC50: Plasmodium falciparum, W2, 66 h, read-out: Strain W2 IC50, growth inhibition, chloroquine-resistant strain W2, 66 h incubation
VERO cells [6] = details: for SI (selectivity index): ratio of IC50 in VERO cells to MIC (M. tuberculosis H37Rv)
in vitro = details: African green monkey, Cytotoxcity (IC50), Table 3; VERO cell line, 72 hours exposure
VERO cells [7] = test: cells; details: Chlorocebus sabaeus, Table 5
[8] = test system: M. avium strains 100, 101, 108, 109, 116; test: M. avium MIC, Microtiter; format: cell-based, Mycobacterium avium
[9] = Table 3, H37Rv, read-out: Inhibition (%)
[10] = Table 5, Alamar assay, read-out: % Inhib
[11] = Table 5, Alamar assay, M. tuberculosis H37Rv, read-out: MIC

Structure (SMILES): COC(=O)CCC(C)[C@H]1CCC2C3C(C[C@H](OC(C)=O)[C@@]21C)[C@@]1(C)CCC2(C[C@H]1C[C@H]3OC(C)=O)OOC1(CCC(c3ccccc3)CC1)OO2 (single isomer, unassigned) [Compound 1B14a, Methyl 7α,12α-diacetoxy-5β-cholan-24-oate-3-spiro-6′-(1′,2′,4′,5′-tetraoxacyclohexane)-3′-spiro-1″-((4″R or S)- and (4″S or R)-phenyl)cyclohexane]
- Resistance Index [1]: 0.93
- inhibition at 6.25 µg/mL [2, 9]: 37%
- inhibition at 6.25 µg/mL [2, 10]: 37%
- outcome of one dose primary anticancer assay [3]: eliminated
- MIC (M. tuberculosis H37Rv; Table 3, H37Rv, read-out: MIC): > 6.25 µg/mL
- MIC (M. tuberculosis H37Rv; [11]): > 6.25 µg/mL
- Strain D6 IC50 [4]: 0.01256 µg/mL
- Strain W2 IC50 [5]: 0.01172 µg/mL

Structure (SMILES): CC(=O)O[C@H]1CC2C(C3CC[C@H](C(C)CCC(N)=O)[C@]31C)[C@H](OC(C)=O)C[C@@H]1CC3(CC[C@]21C)OOC1(CCC(C)CC1)OO3 (stereo partly drawn) [17/1C26, 7α,12α-Diacetoxy-5β-cholan-24-amide-3-spiro-6′-(1′,2′,4′,5′-tetraoxacyclohexane)-3′-spiro-1″-((4″R)-methyl)cyclohexane]
- Resistance Index [1]: 0.50
- Resistance Index ([1]; listed as 17): 0.50
- times more active than parent methyl ester 8g ([1]; antimalarial activity): ca. 9 times
- times as active as arteether ([1]; antimalarial activity in vitro): 2.4 times
- times more active than artelinic acid ([1]; antimalarial activity in vitro): ca. 6 times
- inhibition at 6.25 µg/mL [2, 9]: 99%
- inhibition at 6.25 µg/mL [2, 10]: 99%
- SI (IC50 (Vero)/IC50 (D6 or W2)) (VERO cells [6]; cytotoxicity in Vero cells versus antimalarial activity): 9 500
- SI (selectivity index) (VERO cells [6]): 1.1
- MIC (M. tuberculosis H37Rv; Table 3, H37Rv, read-out: MIC): 3.13 µg/mL and 4.94 µM
- MIC (M. tuberculosis H37Rv; [11]): 3.13 µg/mL (≈ 4.94 µM)
- IC50 (in vitro): 3.49 µg/mL and 5.51 µM
- IC50 (VERO cells [7]): 3.49 µg/mL (≈ 5.51 µM)
- Strain D6 IC50 ([4]; listed as 17): 0.00074 µg/mL
- Strain W2 IC50 ([5]; listed as 17): 0.00037 µg/mL

Structure (SMILES): CC(=O)O[C@H]1CC2C(C3CC[C@H](C(C)CCC(N)=O)[C@]31C)[C@H](OC(C)=O)C[C@@H]1CC3(CC[C@]21C)OOC1(CCCCC1C)OO3 (stereo partly drawn) [13/1C22, 7α,12α-Diacetoxy-5β-cholan-24-amide-3-spiro-6′-(1′,2′,4′,5′-tetraoxacyclohexane)-3′-spiro-1″-(2″-methyl)cyclohexane]
- Resistance Index [1]: 0.64
- times more active than bis(1,1-dioxy-2-methylcyclohexane) [1]: ca. 3.5 times
- MIC ([8]; M. avium strain 101, MIC dilution 0.25-32): >32 µg/mL
- MIC ([8]; M. avium strain 108, MIC dilution 0.25-32): >32 µg/mL
- MIC ([8]; M. avium strain 109, MIC dilution 0.25-32): >32 µg/mL
- MIC ([8]; M. avium strain 116, MIC dilution 0.25-32): >32 µg/mL
- MIC ([8]; Mycobacterium avium, M. avium strain 100, MIC dilution 0.25-32, read-out: MIC): > 32 µg/mL
- inhibition at 6.25 µg/mL [2, 10]: 100%
- MIC (M. tuberculosis H37Rv; [11]): 0.2 µg/mL (≈ 0.316 µM)
- IC50 [4]: 0.011 µg/mL (≈ 0.0173 µM)
- IC50 [5]: 0.00705 µg/mL (≈ 0.0111 µM)

Structure (SMILES): CCNC(=O)CCC(C)[C@H]1CCC2C3C(C[C@H](OC(C)=O)[C@@]21C)[C@@]1(C)CCC2(C[C@H]1C[C@H]3OC(C)=O)OOC1(CCC(C)CC1)OO2 (stereo partly drawn) [19/1C28, N-Ethyl-7α,12α-diacetoxy-5β-cholan-24-amide-3-spiro-6′-(1′,2′,4′,5′-tetraoxacyclohexane)-3″-spiro-1″-((4″R)-methyl)cyclohexane]
- Resistance Index [1]: 0.68
- inhibition at 6.25 µg/mL [2, 9]: 98%
- SI (selectivity index) (VERO cells [6]): 1.7
- MIC (M. tuberculosis H37Rv; Table 3, H37Rv, read-out: MIC): 3.13 µg/mL and 4.73 µM
- MIC (M. tuberculosis H37Rv; [11]): 3.13 µg/mL (≈ 4.73 µM)
- IC50 (in vitro): 5.37 µg/mL and 8.11 µM
- IC50 (VERO cells [7]): 5.37 µg/mL (≈ 8.11 µM)
- Strain D6 IC50 [4]: 0.00384 µg/mL
- Strain W2 IC50 [5]: 0.0026 µg/mL

Structure (SMILES): CCCNC(=O)CC[C@@H](C)[C@H]1CC[C@H]2[C@@H]3[C@H](OC(C)=O)C[C@@H]4CC(OO)(OO)CC[C@]4(C)[C@H]3C[C@H](OC(C)=O)[C@]12C
- melting point: 120 to 129 °C

Structure (SMILES): CCCNC(=O)CCC(C)[C@H]1CCC2C3C(C[C@H](OC(C)=O)[C@@]21C)[C@@]1(C)CCC2(C[C@H]1C[C@H]3OC(C)=O)OOC1(CCC(C)CC1)OO2 (stereo partly drawn) [20/1C29, N-(n-Propyl)-7α,12α-diacetoxy-5β-cholan-24-amide-3-spiro-6′-(1′,2′,4′,5′-tetraoxacyclohexane)-3′-spiro-1″-((4″R)-methyl)cyclohexane]
- Resistance Index [1]: 1.18
- inhibition at 6.25 µg/mL [2, 9]: 94%
- SI (selectivity index) (VERO cells [6]): 1.3
- MIC (M. tuberculosis H37Rv; Table 3, H37Rv, read-out: MIC): 6.25 µg/mL and 9.25 µM
- MIC (M. tuberculosis H37Rv; [11]): 6.25 µg/mL (≈ 9.25 µM)
- IC50 (in vitro): 8.34 µg/mL and 12.3 µM
- IC50 (VERO cells [7]): 8.34 µg/mL (≈ 12.3 µM)
- Strain D6 IC50 [4]: 0.00218 µg/mL
- Strain W2 IC50 [5]: 0.00258 µg/mL

Structure (SMILES): CNC(=O)CCC(C)[C@H]1CCC2C3C(C[C@H](OC(C)=O)[C@@]21C)[C@@]1(C)CCC2(C[C@H]1C[C@H]3OC(C)=O)OOC1(CCC(c3ccccc3)CC1)OO2 (single isomer, unassigned) [Compound 1C46, N-Methyl-7α,12α-Diacetoxy-5β-cholan-24-amide-3-spiro-6′-(1′,2′,4′,5′-tetraoxacyclohexane)-3′-spiro-1″-((4″R or S)-phenyl)cyclohexane]
- Resistance Index [1]: 0.79
- inhibition at 6.25 µg/mL ([2]; Table 3, H37Rv): 71%
- inhibition at 6.25 µg/mL [2, 10]: 71%
- outcome of one dose primary anticancer assay [3]: eliminated
- MIC (M. tuberculosis H37Rv; Table 3): 6.25 µg/mL (≈ 8.8 µM)
- MIC (M. tuberculosis H37Rv; [11]): > 6.25 µg/mL
- Strain D6 IC50 [4]: 0.00883 µg/mL
- Strain W2 IC50 [5]: 0.00696 µg/mL

Structure (SMILES): COC(=O)CCC(C)[C@H]1CCC2C3C(C[C@H](OC(C)=O)[C@@]21C)[C@@]1(C)CCC2(C[C@H]1C[C@H]3OC(C)=O)OOC1(CCCCC1C)OO2 (stereo partly drawn) [8d/1B06, Methyl 7α,12α-Diacetoxy-5β-cholan-24-oate-3-spiro-6′-(1′,2′,4′,5′-tetraoxacyclohexane)-3′-spiro-1″-(2″-methyl)cyclohexane]
- Resistance Index [1]: 0.58
- times more active than bis(1,1-dioxy-2-methylcyclohexane) [1]: about 2 times
- inhibition at 6.25 µg/mL [2, 10]: 29%
- MIC (M. tuberculosis H37Rv; [11]): > 6.25 µg/mL
- IC50 [4]: 0.0175 µg/mL (≈ 0.027 µM)
- IC50 [5]: 0.0102 µg/mL (≈ 0.0156 µM)
- melting point: 204 to 207 °C

Structure (SMILES): COC(=O)CCC(C)[C@H]1CCC2C3C(C[C@H](OC(C)=O)[C@@]21C)[C@@]1(C)CCC2(C[C@H]1C[C@H]3OC(C)=O)OOC1(OO2)C(C)CCCC1C (stereo partly drawn) [8e/1B07, Methyl 7α,12α-diacetoxy-5β-cholan-24-oate-3-spiro-6′-(1′,2′,4′,5′-tetraoxacyclohexane)-3′-spiro-1″-(2″,6″-dimethyl)cyclohexane]
- antimalarial activity in words ([1]; D6 and W2 clones, Table 2): inactive
- Resistance Index [1]: 11.45
- inhibition at 6.25 µg/mL [2, 10]: 0%
- MIC (M. tuberculosis H37Rv; [11]): > 6.25 µg/mL
- IC50 [4]: 0.0207 µg/mL (≈ 0.0312 µM)
- IC50 [5]: 0.237 µg/mL (≈ 0.357 µM)
- melting point: 213 to 215 °C

Source: patent publication US6906098B2, “Mixed steroidal 1,2,4,5-tetraoxane compounds and methods of making and using thereof” (priority 2002, dated 2005)
